Data on two compounds can be found in patent US11226337B2, “Chemoproteomic profiling of protein electrophilic and oxidative post-translational modifications” (Zenagem, LLC, priority 2017, dated 2022).

Common to all, as to assay: SILAC RP-ABPP
Assay type in all cases: cell-based

Assay [1] deals with T1, NT5DC2 5nucleotidase domaincontaining (Q9H857) (Homo sapiens, UniProt Q9H857).
T1 construct: shared by both the endogenous and recombinant forms of these proteins; endogenous in cells; host or cells: HEK293T and MDA-MB-231
T1 sequence (Q9H857 1-520): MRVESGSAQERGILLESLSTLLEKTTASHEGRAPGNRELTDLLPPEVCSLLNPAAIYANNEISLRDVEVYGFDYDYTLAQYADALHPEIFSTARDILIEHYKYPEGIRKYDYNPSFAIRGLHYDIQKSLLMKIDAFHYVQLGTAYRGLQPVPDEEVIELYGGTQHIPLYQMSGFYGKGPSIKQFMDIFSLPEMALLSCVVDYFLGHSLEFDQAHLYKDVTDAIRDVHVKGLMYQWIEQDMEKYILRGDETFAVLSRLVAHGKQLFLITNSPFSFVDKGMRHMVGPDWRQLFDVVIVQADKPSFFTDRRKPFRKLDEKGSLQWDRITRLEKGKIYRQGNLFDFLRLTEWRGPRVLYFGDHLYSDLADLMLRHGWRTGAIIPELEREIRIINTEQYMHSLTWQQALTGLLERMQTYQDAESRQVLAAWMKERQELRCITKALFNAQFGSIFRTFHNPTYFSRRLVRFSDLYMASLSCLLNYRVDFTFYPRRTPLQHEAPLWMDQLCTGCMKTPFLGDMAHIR
The note with it: SILAC H/L, HEK293T. On the procedure:
(§1) For MS-based experiments, labelling was performed in a similar manner as described above in Example 2, maintaining the same concentrations of probes. Modifications to this protocol included using isotopically ‘light’ and ‘heavy’ SILAC cells that were also grown to near complete confluence prior to treatment. Isotopically light cells were treated with the non-clickable hydrazine probe (at the same concentration as the probe in ‘enrichment’ experiments) or the probe in the presence of 10-fold excess non-clickable hydrazine probe as a competitor (in ‘competition’ experiments). Isotopically heavy cells were treated with the probe for both types of experiments. These treatments were performed in non-SILAC media. Following treatments, cells were washed with cold PBS to remove the probe-containing media, harvested by scraping, collected by centrifugation (1,400 g, 3 min, 4° C.), washed again by resuspension in cold PBS and frozen as pellets at −80° C. until use.
(§2) The fractionated equimolar mixture of heavy and light soluble proteomes (1-1.5 mg) was diluted to 1 mL in PBS. Click reactions were scaled accordingly (except for biotin-azide) to maintain final concentrations of 0.1 mM TBTA, 1 mM CuSO4, 100 μM biotin-azide (10 mM in DMSO) and 1 mM TCEP. The mixture was vortexed and placed on a rotator at ambient temperature for 1 hour. Sequential addition of and mixture with pre-chilled methanol (MeOH, 2 mL), chloroform (CHCl3, 0.5 mL) and PBS (1 mL) on ice quenched the reaction. The precipitated proteome was centrifuged (5,000 g, 10 min, 4° C.) to fractionate the protein interphase from the organic and aqueous solvent layers. The protein pellet was washed with cold 1:1 MeOH:CHCl3 (3×1 mL), mildly sonicated in cold 4:1 MeOH:CHCl3 (2.5 mL) and pelleted once more by centrifugation (5,000 g, 10 min, 4° C.) to ensure click reagents were efficiently removed.
(§3) Heavy and light parent ion chromatograms associated with successfully identified peptides were extracted and compared using CIMAGE software as previously described^69. At least one ion of a co-eluting heavy-light pair must be accurately identified from a fragmentation event that occurred within the retention time window (±10 min) of parent ion elution. To ensure that the correct pair of peaks is quantified, chromatograms are extracted within a 10 ppm error tolerance of the predicted m/z, the signal-to-noise ratio must be >2.5 and the ‘co-elution correlation score’ and ‘envelope correlation score’ must have R^2 values ≥0.8. In addition, peptides detected as ‘singletons,’ where only the heavy ion of a peptide pair was identified, but for which passed all other filtering parameters, are given a default assigned ratio of ‘20,’ which is defined as any measured ratio that is ≥20.
(§4) To further eliminate false positives and any stochastic variability in the data, protein ratios were then determined by the median peptide ratio derived from three or more unique quantified peptides. Protein ratios that complied with these criteria from a single experiment were then averaged with ratios acquired from ≥3 replicates to provide final values for each type of experiment in both cell lines with both probes. […] Most importantly, there are no robustly measured ratios for proteins identified as probe 1 targets that had measured ratios of ˜1 with probe 2. Probe targets in HEK293T and MDA-MB-231 cells represent data combined from ≥3 independent biological replicates with each cell type performed with several independent batches of synthesized probes over a period of almost two years. […]

The target in assay [2] is T2, P4HA1 Prolyl 4hydroxylase subunit alpha1 (P13674) (Homo sapiens, UniProt P13674).
T2 construct: In Situ Labelling of Cells with Hydrazine Probes for MS Experiments; endogenous in cells
T2 sequence (P13674 18-534): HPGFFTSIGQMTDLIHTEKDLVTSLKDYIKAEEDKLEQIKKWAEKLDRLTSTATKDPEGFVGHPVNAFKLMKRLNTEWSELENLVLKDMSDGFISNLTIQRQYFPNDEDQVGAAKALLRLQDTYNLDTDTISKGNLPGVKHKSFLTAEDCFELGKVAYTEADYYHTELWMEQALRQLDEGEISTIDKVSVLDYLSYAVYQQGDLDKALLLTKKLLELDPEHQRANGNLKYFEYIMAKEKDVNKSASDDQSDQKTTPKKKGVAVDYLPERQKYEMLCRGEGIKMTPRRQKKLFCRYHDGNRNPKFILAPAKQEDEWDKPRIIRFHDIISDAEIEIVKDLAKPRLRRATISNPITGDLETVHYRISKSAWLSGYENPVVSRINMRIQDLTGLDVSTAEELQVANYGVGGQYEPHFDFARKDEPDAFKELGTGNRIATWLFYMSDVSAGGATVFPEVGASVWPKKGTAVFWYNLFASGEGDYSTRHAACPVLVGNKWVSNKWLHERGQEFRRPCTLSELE
T2 sequence (P07237 18-508 partner): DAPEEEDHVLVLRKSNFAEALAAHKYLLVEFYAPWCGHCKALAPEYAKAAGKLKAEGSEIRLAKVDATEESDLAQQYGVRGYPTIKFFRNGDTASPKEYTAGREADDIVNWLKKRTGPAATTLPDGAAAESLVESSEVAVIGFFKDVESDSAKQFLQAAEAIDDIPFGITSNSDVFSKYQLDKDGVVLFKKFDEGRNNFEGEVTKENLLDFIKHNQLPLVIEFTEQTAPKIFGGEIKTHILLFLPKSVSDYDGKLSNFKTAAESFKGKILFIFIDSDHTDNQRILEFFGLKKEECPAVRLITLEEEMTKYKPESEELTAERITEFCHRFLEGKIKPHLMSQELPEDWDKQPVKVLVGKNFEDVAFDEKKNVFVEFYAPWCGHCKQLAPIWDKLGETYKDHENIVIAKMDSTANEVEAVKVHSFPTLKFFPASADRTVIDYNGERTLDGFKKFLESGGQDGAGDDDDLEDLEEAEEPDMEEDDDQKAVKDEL
The note with it: SILAC H/L, MDA-MB-231. On the procedure: as §1, §2, §3, §4

Assay [3] deals with T3, PSAP Proactivator polypeptide (P07602) (Homo sapiens, UniProt P07602).
T3 construct: In Situ Labelling of Cells with Hydrazine Probes for MS Experiments; endogenous in cells; host or cells: HEK293T and MDA-MB-231
T3 sequence (P07602 60-524): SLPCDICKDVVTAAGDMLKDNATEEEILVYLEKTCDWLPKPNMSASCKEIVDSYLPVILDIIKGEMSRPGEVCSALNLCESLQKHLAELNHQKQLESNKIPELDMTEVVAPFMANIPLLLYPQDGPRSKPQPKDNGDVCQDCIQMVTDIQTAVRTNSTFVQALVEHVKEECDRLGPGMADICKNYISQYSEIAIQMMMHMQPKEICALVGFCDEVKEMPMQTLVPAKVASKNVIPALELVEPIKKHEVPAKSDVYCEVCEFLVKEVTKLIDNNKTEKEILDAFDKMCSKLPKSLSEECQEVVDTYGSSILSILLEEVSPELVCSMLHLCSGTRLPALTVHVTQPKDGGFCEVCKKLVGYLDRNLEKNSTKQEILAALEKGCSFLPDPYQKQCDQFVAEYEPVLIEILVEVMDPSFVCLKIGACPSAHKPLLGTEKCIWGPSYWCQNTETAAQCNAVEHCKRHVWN
The note with it: SILAC H/L, MDA-MB-231. On the procedure:
as §1, §2, §3, §4

SMILES strings stand for the structures.

Turning to `C#CCNN.Cl` [probe 1, prop-2-yn-1-ylhydrazine hydrochloride], the enrichment ratioavg in assay [1] (probe 1 3 mM 0.5 h vs probe 3) is recorded as 11; in assay [2] (probe 1 3 mM 0.5 h vs probe 3), 15; in assay [3] (probe 1 3 mM 0.5 h vs probe 3), 12. In addition, the values for the competition ratioavg in assay [1] (probe 1 vs probe 1+10x probe 3), in assay [2] (probe 1 vs probe 1+10x probe 3) and in assay [3] (probe 1 vs probe 1+10x probe 3) were 3, 2 and 3, respectively.

Take `C#CCCNC(=O)c1ccc(NN)cc1.Cl` [probe 2, N-(but-3-yn-1-yl)-4-hydrazinylbenzamide hydrochloride]: the values for the enrichment ratioavg in assay [1] (probe 2 1 mM 0.5 h vs probe 4), in assay [2] (probe 2 1 mM 0.5 h vs probe 4) and in assay [3] (probe 2 1 mM 0.5 h vs probe 4) were 16, 8 and 5, respectively. Besides, the results for the competition ratioavg in assay [1] (probe 2 vs probe 2+10x probe 4), in assay [2] (probe 2 vs probe 2+10x probe 4) and in assay [3] (probe 2 vs probe 2+10x probe 4) were 4, 3 and 5, respectively.
